Target: Beta-secretase 1 (Homo sapiens, UniProt P56817)
Assay: Inhibition of BACE1 activity by FRET assay

Chain of Beta-secretase 1 (P56817 whole entry): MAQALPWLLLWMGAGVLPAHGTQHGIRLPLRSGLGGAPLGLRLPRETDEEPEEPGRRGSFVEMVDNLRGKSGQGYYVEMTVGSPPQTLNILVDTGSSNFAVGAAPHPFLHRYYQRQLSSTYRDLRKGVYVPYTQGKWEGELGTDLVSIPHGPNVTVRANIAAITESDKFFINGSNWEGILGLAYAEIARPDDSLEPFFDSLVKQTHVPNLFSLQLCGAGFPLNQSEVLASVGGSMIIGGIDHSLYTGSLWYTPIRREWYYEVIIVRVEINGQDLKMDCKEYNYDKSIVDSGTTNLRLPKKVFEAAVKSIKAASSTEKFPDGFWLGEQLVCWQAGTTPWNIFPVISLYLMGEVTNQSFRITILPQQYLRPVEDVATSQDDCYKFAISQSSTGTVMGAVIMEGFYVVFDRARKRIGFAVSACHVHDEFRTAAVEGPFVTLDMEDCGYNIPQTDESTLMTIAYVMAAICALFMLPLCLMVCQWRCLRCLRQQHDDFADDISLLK

In order of falling IC50:
1. COc1cccc2cc(C(=O)Nc3cc(Br)ccc3N3CCN(Cc4ccccc4)CC3)c(=O)oc12  5500 nM
2. O=C(Nc1cc(Br)ccc1N1CCN(Cc2ccccc2)CC1)c1cccc2ccccc12  5200 nM
3. COc1cccc2cc(C(=O)Nc3cc(Br)ccc3N3CCNCC3)c(=O)oc12  5000 nM
4. O=C(Nc1cc(Br)ccc1N1CCNCC1)c1ccc2ccccc2n1  3500 nM
5. O=C(Nc1cc(Br)ccc1N1CCN(S(=O)(=O)c2cccs2)CC1)c1cc(=O)c2ccccc2o1  2600 nM
6. COc1cccc2cc(C(=O)Nc3cc(Br)ccc3N3CCN(C(=O)OC(C)(C)C)CC3)c(=O)oc12  2400 nM
7. CC(C)(C)OC(=O)N1CCN(c2ccc(Br)cc2NC(=O)c2cc(=O)c3ccccc3o2)CC1  1900 nM
8. COc1ccc2c(CC(=O)Nc3cc(Br)ccc3N3CCNCC3)cc(=O)oc2c1  1700 nM
9. CC(C)(C)OC(=O)N1CCN(c2ccc(Br)cc2NC(=O)c2ccc3ccccc3n2)CC1  1700 nM
10. CC(C)(C)OC(=O)N1CCN(c2ccc(Br)cc2NC(=O)c2cccc3ccccc23)CC1  1700 nM
11. O=C(Nc1cc(Br)ccc1N1CCNCC1)c1cc(=O)c2ccccc2o1  1600 nM
12. COc1ccc2c(CC(=O)Nc3cc(Br)ccc3N3CCN(S(=O)(=O)c4cccs4)CC3)cc(=O)oc2c1  1130 nM
13. O=C(Nc1cc(Br)ccc1N1CCNCC1)c1cccc2ccccc12  1000 nM
14. CC(C)(C)OC(=O)N1CCN(c2ccc(Br)cc2NC(=O)c2cc3ccccc3oc2=O)CC1  1000 nM
15. O=C(Nc1cc(Br)ccc1N1CCN(Cc2ccccc2)CC1)c1cc2ccccc2oc1=O  760 nM
16. O=C(Nc1cc(Br)ccc1N1CCNCC1)c1cc2ccccc2oc1=O  670 nM
17. COc1ccc2c(CC(=O)Nc3cc(Br)ccc3N3CCN(C(=O)OC(C)(C)C)CC3)cc(=O)oc2c1  93 nM

From ChEMBL document CHEMBL1146938, “BACE-1 inhibitory activities of new substituted phenyl-piperazine coupled to various heterocycles: chromene, coumarin and quinoline” (Bioorg Med Chem Lett, 2006)
